Patent US8048918B2, “Treatment of hyperproliferative diseases” (Vampex Limited, priority 2000, dated 2011)
pIC50: −log10 of the molar value. Where no end group is shown, it is not given here.

What was measured:
RalDHI = target: T1, RalDHI (Rattus norvegicus, UniProt P51647); conditions: Penzes et al. 1997; Chen and Juchau 1997; cited from earlier work
T1 sequence (P51647 1-501): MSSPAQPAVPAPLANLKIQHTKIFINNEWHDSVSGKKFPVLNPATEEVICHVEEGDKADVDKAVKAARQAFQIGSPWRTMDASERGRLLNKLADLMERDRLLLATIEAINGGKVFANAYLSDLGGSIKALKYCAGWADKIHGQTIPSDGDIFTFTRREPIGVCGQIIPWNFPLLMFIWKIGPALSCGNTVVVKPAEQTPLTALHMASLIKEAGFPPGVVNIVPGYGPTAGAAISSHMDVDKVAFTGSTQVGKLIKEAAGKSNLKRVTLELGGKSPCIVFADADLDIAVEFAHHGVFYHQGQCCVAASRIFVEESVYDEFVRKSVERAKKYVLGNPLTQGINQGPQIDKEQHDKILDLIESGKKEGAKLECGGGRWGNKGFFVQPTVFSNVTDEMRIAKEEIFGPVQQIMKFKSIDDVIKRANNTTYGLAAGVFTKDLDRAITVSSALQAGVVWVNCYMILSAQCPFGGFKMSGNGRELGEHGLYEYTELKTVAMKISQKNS

COS-7 cells = experiment: proliferation assay of COS-7 cells (Coulter counter); format: cell-based; conditions: P142 1 mg/ml, peptides 6 μM; 24 and 48 hours after treatment; FIG. 8
Description: (§1) […] (COS1 and COS7) are purchased from the European Cell Culture Collection, thawed and propagated according to the instructions from the supplier; cells are cultured essentially in the same manner as for normal human keratinocytes (Example 3 above), except that cells are seeded at 20 000 cells/cm^2, with only one treatment with antibody P142, control immunoglobulin, peptide 589, peptide 592 or control peptide 24 hrs after seeding.
(§2) Proliferation is assayed by counting cells in a Coulter counter, as described above.

[1] = system: hyperproliferative psoriatic keratinocytes; experiment: differentiation assay (K1/K10 mRNA, Northern blot / RT-PCR) on hyperproliferative psoriatic keratinocytes; format: cell-based, human; conditions: peptides 6 μM, Ca2+ 1.2 mM, RBP 0.6 μM
Description: RNA extraction is carried out according to the manufacturers instructions using the RNeasy kit (QIAGEN). 20 μg of RNA for each treatment was separated on a 1.2% agarose (1.8% formaldehyde) gel and transferred onto a nylon membrane (Zeta probe GT membranes, BioRad) by capillary transfer. The RNA is fixed to the membrane by UV crosslinking. DNA probes for the differentiation markers K1 and K10(50 ng) are labelled with [α-^32P] dCTP using the Prime-It RmT Primer labeling kit (Stratagene) following the manufacturer's instructions. Unincorporated nucleotides are removed by elution through a Microspin G25 column (Pharmacia Biotech). The blots are wetted in 0.25M sodium phosphate (pH 7.2)/7% SDS for 30 minutes at 65° C. Fresh hybridisation solution is added along with the radiolabelled probe and the blot is hybridised overnight at 65° C.
The blot is washed for 2×5 minutes in 0.25M sodium phosphate (pH 7.2), 7% SDS and then for 2×5 minutes in 20 mM sodium phosphate (pH 7.2), 5% SDS at 65° C. The wash steps are repeated until a clear distinction can be made between the signal and non-specific background. The blot is exposed to x-ray film for 24 hours before developing.
Synthesis of mRNA for the K1 and K10 keratin (markers for commitment to terminal differentiation) is examined by quantitative reverse transcription PCR (RT-PCR). Synthesis of mRNA for Cyclin D (a marker for cell proliferation) is also assayed by RT-PCR. Standard protocol for RT-PCR is followed as recommended by the manufacturer of the PCR machine (PE 2400) using 1 μg RNA from each keratinocyte culture. Suitable primers for RT-PCR are designed based on the human sequences of K1 and K10 deposited in GenBank. Northern blots are also performed: cells are harvested, RNA extracted and 20 μg RNA loaded into each well of a formaldehyde/agarose gel. The RNA is blotted onto a nylon membrane by capillary transfer and expression of K1 mRNA is determined by Northern hybridisation with a radiolabelled DNA probe.
Next, hyperproliferative epidermal keratinocytes are obtained, isolated and cultured as described above in Example 3. Hyperproliferative psoriatic keratinocytes are cultured as described above in serum-free medium with or without the addition of […] human retinol binding protein. At confluence the cells are treated (see Table 3 below) for 96 hours with peptides to 6 μM (medium replaced after 48 hours). Treatments shown in the Table 3 are for duplicate T-25 flasks (2×7 ml for each treatment).
The final concentrations are: Ca^2+ 1.2 mM, RBP 0.6 μM, peptides 6 μM.
Expression of K1 and K10 markers is determined as described above in Example 4. […]
Synthesis of mRNA for markers of proliferation and differentiation is also examined by semi-quantitative reverse transcription PCR (RT-PCR). […]

COS-1 cells = experiment: proliferation assay of COS-1 cells (Coulter counter); format: cell-based; conditions: P142 1 mg/ml, peptides 6 μM; 24 and 48 hours after treatment; FIG. 7
Description: as §1, §2

[2] = system: human dermal fibroblast cells; experiment: proliferation assay of human dermal fibroblast cells; format: cell-based; conditions: P142 1 mg/ml, peptides 6 μM; 24 hours and 4 days after treatment; FIG. 9
Description: Fibroblast cell culture is performed essentially as described for culture of hyperproliferative psoriatic keratinocytes (Example 3), except that following irrigation with complete culture medium, the dermal portion is incubated with 1 mg/ml of collagenase (Sigma) in 20 ml DMEM in a 50 ml centrifuge tube for 16 hours at 37° C. Then 20 ml DMEM containing 5% foetal calf serum and 1% antibiotic/antimycotic solution (Gibco) is added and the cells seeded at 37° C. in DMEM medium+additions at a density of 2500 cells/cm^2 in a 25 cm^2 cell culture flask. Medium is replaced every 48 hours and cells passaged when confluent.
Fibroblast cell culture and experiments are performed essentially as described for culture of hyperproliferative psoriatic keratinocytes (above), except that following irrigation with complete culture medium, the dermal portion is processed further. Reference is made to fibroblast culture protocols set out above.
Proliferation of cells is assayed by direct cell counting essentially as for determination of proliferation in keratinocyte cell cultures. RDH, ADH, RalDH inhibitors are found to reduce proliferation.

Row | Compound | pIC50 (RalDHI) | proliferation of Cos-7 cells (cell numbers) (COS-7 cells) | differentiation (expression of K1 and K10 markers) [1] | differentiation (expression of K1 and K10 markers) ([1]; listed as peptide 389) | proliferation of Cos-1 cells (cell numbers) (COS-1 cells) | fibroblast proliferation (cell numbers) [2]
1 | CC(C)=CCCC(C)=CC=O [Citral, 3,7-dimethyl-2,6-octadienal] | 6.00 | – | – | – | – | –
2 | GRVRLLNNWDVCA | – | marked reduction in proliferation | enhances the expression of K1 and K10 markers | reversed | marked reduction in proliferation | greater reduction in proliferation
